Data taken from patent US20190136321A1, “USE OF TRANSLATIONAL PROFILING TO IDENTIFY TARGET MOLECULES FOR THERAPEUTIC TREATMENT” (The Regents of The University of California, priority 2013, published 2019).

Tests used:
Format in all cases: cell-based, human
SW620 cells [1] = assay: Ribosome profiling of SW620 cells (transcription, translational rate, translational efficiency); settings: 8 hours
Experimental: SW620 human colon cancer cells were cultured in DMEM media supplemented with penicillin G (100 U/ml), streptomycin (100 μg/ml), and 10% FBS in a humidified atmosphere of 5% CO2 maintained at 37° C.
(§1) SW620 cells (ATCC, passage 12) were seeded at about 75% confluence 24 hrs prior to drug treatment. […] About 6×10^6 cells/10 cm plate and about 1×10^6 cells/well of a 6-well plate were harvested for ribosome profiling and Western blot analysis, respectively, following drug treatment.

SW620 cells [2] = assay: Western blot of phosphorylation of protein translation components in SW620 cells
Experimental: as §1
Cells were washed with PBS and lysed in 1× cell lysis buffer (Cell Signaling) for 15 min at 4° C. Lysates were sonicated briefly, clarified by centrifugation for 15 min at 14, 000 rpm, and supernatants were then collected. Protein concentration in the soluble fraction was determined by BCA protein assay (Thermo Scientific). A 4-20% Bis-Tris gradient gel (Invitrogen) was used to resolve 20 μg of protein and transferred to nitrocellulose membrane. The resulting membranes were blocked for 1 hr at room temperature with Odyssey blocking solution (LI-COR) and then incubated with primary antibodies at 4° C. overnight. The following day, the blots were washed 3 times, 10 min each in TBST, and incubated with IR-conjugated goat anti-rabbit IgG secondary antibody (IRDye 800 CW at 1:20,000; LI-COR) for 1 hour at room temperature. The blots were then washed, scanned, and specific proteins were detected using the LI-COR Odyssey infrared imager. The following antibodies from Cell Signaling were used at 1:1000 dilution: anti-phospho-eIF4E(Ser209)(#9741), anti-phospho-rpS6(Ser235/236)(#4858), anti-phospho-ERK1/2(Thr202/Tyr204)(#4370), anti-phospho-p70S6K(Thr421/Ser424)(#9204), anti-phospho-p90RSK(Thr359/Ser363)(#9344), anti-phospho-4EBP(Ser65), anti-phospho-pAKT(Ser473), anti-phospho-eIF4E(Ser209), and anti-β-actin (#4970). Actin was used as a loading amount control.

SW620 cells [3] = assay: Proliferation assay on SW620 cells

Question: Which “Profile TE” value (SW620 cells [1]; gene LIF, 250 nM) does the source give for `CC(=O)Nc1cccc(-n2c(=O)n(C3CC3)c(=O)c3c(Nc4ccc(I)cc4F)n(C)c(=O)c(C)c32)c1` [GSK212] here?
Answer: 0.9 log2 MEKi/DMSO

Question: What about the Profile rna (SW620 cells [1]; gene LIF, 250 nM) of the same compound?
Answer: −1.7 log2 MEKi/DMSO

Question: And the Profile rpf (SW620 cells [1]; gene LIF, 250 nM)?
Answer: −0.9 log2 MEKi/DMSO

Question: What about the “Profile TE” value (SW620 cells [1]; gene LNK/SH2B3, 250 nM) of the same compound?
Answer: −0.9 log2 MEKi/DMSO

Question: What about the Profile rna (SW620 cells [1]; gene LNK/SH2B3, 250 nM) of the same compound?
Answer: 0.2 log2 MEKi/DMSO

Question: And the Profile rpf (SW620 cells [1]; gene LNK/SH2B3, 250 nM)?
Answer: −0.7 log2 MEKi/DMSO

Question: What about the “Profile TE” value (SW620 cells [1]; gene MAFF, 250 nM) of the same compound?
Answer: 0.6 log2 MEKi/DMSO

Question: And the Profile rna (SW620 cells [1]; gene MAFF, 250 nM)?
Answer: −1.7 log2 MEKi/DMSO

Question: What about the Profile rpf (SW620 cells [1]; gene MAFF, 250 nM) of the same compound?
Answer: −1.1 log2 MEKi/DMSO

Question: And the “Profile TE” value (SW620 cells [1]; gene MAP2K3, 250 nM)?
Answer: 1.0 log2 MEKi/DMSO

Question: What about the Profile rna (SW620 cells [1]; gene MAP2K3, 250 nM) of the same compound?
Answer: −1.6 log2 MEKi/DMSO

Question: What about the Profile rpf (SW620 cells [1]; gene MAP2K3, 250 nM) of the same compound?
Answer: −0.6 log2 MEKi/DMSO

Question: What about the “Profile TE” value (SW620 cells [1]; gene MYC, 250 nM) of the same compound?
Answer: −0.3 log2 MEKi/DMSO

Question: And the Profile rna (SW620 cells [1]; gene MYC, 250 nM)?
Answer: −1.3 log2 MEKi/DMSO

Question: And the Profile rpf (SW620 cells [1]; gene MYC, 250 nM)?
Answer: −1.6 log2 MEKi/DMSO

Question: And the “Profile TE” value (SW620 cells [1]; gene PHLDA2, 250 nM)?
Answer: 1.1 log2 MEKi/DMSO

Question: And the Profile rna (SW620 cells [1]; gene PHLDA2, 250 nM)?
Answer: −2.1 log2 MEKi/DMSO

Question: What about the Profile rpf (SW620 cells [1]; gene PHLDA2, 250 nM) of the same compound?
Answer: −1.1 log2 MEKi/DMSO

Question: And the “Profile TE” value (SW620 cells [1]; gene PLK3, 250 nM)?
Answer: 0.7 log2 MEKi/DMSO

Question: What about the Profile rna (SW620 cells [1]; gene PLK3, 250 nM) of the same compound?
Answer: −3.1 log2 MEKi/DMSO

Question: And the Profile rpf (SW620 cells [1]; gene PLK3, 250 nM)?
Answer: −2.4 log2 MEKi/DMSO

Question: And the “Profile TE” value (SW620 cells [1]; gene POLR1C, 250 nM)?
Answer: 0.2 log2 MEKi/DMSO

Question: And the Profile rna (SW620 cells [1]; gene POLR1C, 250 nM)?
Answer: −0.8 log2 MEKi/DMSO

Question: What about the Profile rpf (SW620 cells [1]; gene POLR1C, 250 nM) of the same compound?
Answer: −0.6 log2 MEKi/DMSO

Question: And the “Profile TE” value (SW620 cells [1]; gene POLR3G, 250 nM)?
Answer: −0.1 log2 MEKi/DMSO

Question: What about the Profile rna (SW620 cells [1]; gene POLR3G, 250 nM) of the same compound?
Answer: −0.7 log2 MEKi/DMSO

Question: What about the Profile rpf (SW620 cells [1]; gene POLR3G, 250 nM) of the same compound?
Answer: −0.8 log2 MEKi/DMSO

Question: What about the “Profile TE” value (SW620 cells [1]; gene PPAN, 250 nM) of the same compound?
Answer: −0.7 log2 MEKi/DMSO

Question: What about the Profile rna (SW620 cells [1]; gene PPAN, 250 nM) of the same compound?
Answer: −0.4 log2 MEKi/DMSO

Question: What about the Profile rpf (SW620 cells [1]; gene PPAN, 250 nM) of the same compound?
Answer: −1.1 log2 MEKi/DMSO

Question: And the “Profile TE” value (SW620 cells [1]; gene PPAT, 250 nM)?
Answer: −0.3 log2 MEKi/DMSO

Question: What about the Profile rna (SW620 cells [1]; gene PPAT, 250 nM) of the same compound?
Answer: −0.4 log2 MEKi/DMSO

Question: And the Profile rpf (SW620 cells [1]; gene PPAT, 250 nM)?
Answer: −0.7 log2 MEKi/DMSO

Question: And the “Profile TE” value (SW620 cells [1]; gene PYCRL, 250 nM)?
Answer: 0.1 log2 MEKi/DMSO

Question: What about the Profile rna (SW620 cells [1]; gene PYCRL, 250 nM) of the same compound?
Answer: −0.2 log2 MEKi/DMSO

Question: And the Profile rpf (SW620 cells [1]; gene PYCRL, 250 nM)?
Answer: 0.0 log2 MEKi/DMSO

Question: What about the “Profile TE” value (SW620 cells [1]; gene RRS1, 250 nM) of the same compound?
Answer: 0.1 log2 MEKi/DMSO

Question: And the Profile rna (SW620 cells [1]; gene RRS1, 250 nM)?
Answer: −0.9 log2 MEKi/DMSO

Question: And the Profile rpf (SW620 cells [1]; gene RRS1, 250 nM)?
Answer: −0.8 log2 MEKi/DMSO

Question: What about the “Profile TE” value (SW620 cells [1]; gene SEMA6A, 250 nM) of the same compound?
Answer: −1.5 log2 MEKi/DMSO

Question: And the Profile rna (SW620 cells [1]; gene SEMA6A, 250 nM)?
Answer: 2.3 log2 MEKi/DMSO

Question: And the Profile rpf (SW620 cells [1]; gene SEMA6A, 250 nM)?
Answer: 0.7 log2 MEKi/DMSO

Question: What about the “Profile TE” value (SW620 cells [1]; gene SLC1A5, 250 nM) of the same compound?
Answer: −0.3 log2 MEKi/DMSO

Question: And the Profile rna (SW620 cells [1]; gene SLC1A5, 250 nM)?
Answer: −0.1 log2 MEKi/DMSO

Question: And the Profile rpf (SW620 cells [1]; gene SLC1A5, 250 nM)?
Answer: −0.5 log2 MEKi/DMSO

Question: What about the “Profile TE” value (SW620 cells [1]; gene SLC4A7, 250 nM) of the same compound?
Answer: −0.9 log2 MEKi/DMSO

Question: And the Profile rna (SW620 cells [1]; gene SLC4A7, 250 nM)?
Answer: −0.2 log2 MEKi/DMSO

Question: And the Profile rpf (SW620 cells [1]; gene SLC4A7, 250 nM)?
Answer: −1.1 log2 MEKi/DMSO

Question: What about the “Profile TE” value (SW620 cells [1]; gene SPRED2, 250 nM) of the same compound?
Answer: −1.3 log2 MEKi/DMSO

Question: And the Profile rna (SW620 cells [1]; gene SPRED2, 250 nM)?
Answer: −2.1 log2 MEKi/DMSO

Question: What about the Profile rpf (SW620 cells [1]; gene SPRED2, 250 nM) of the same compound?
Answer: −3.5 log2 MEKi/DMSO

Question: What about the “Profile TE” value (SW620 cells [1]; gene SPRY2, 250 nM) of the same compound?
Answer: 0.4 log2 MEKi/DMSO

Question: And the Profile rna (SW620 cells [1]; gene SPRY2, 250 nM)?
Answer: −1.7 log2 MEKi/DMSO

Question: And the Profile rpf (SW620 cells [1]; gene SPRY2, 250 nM)?
Answer: −1.3 log2 MEKi/DMSO

Question: And the “Profile TE” value (SW620 cells [1]; gene SPRY4, 250 nM)?
Answer: −2.0 log2 MEKi/DMSO

Question: And the Profile rna (SW620 cells [1]; gene SPRY4, 250 nM)?
Answer: −5.2 log2 MEKi/DMSO

Question: And the Profile rpf (SW620 cells [1]; gene SPRY4, 250 nM)?
Answer: −7.1 log2 MEKi/DMSO

Question: What about the “Profile TE” value (SW620 cells [1]; gene TNC, 250 nM) of the same compound?
Answer: −1.6 log2 MEKi/DMSO

Question: What about the Profile rna (SW620 cells [1]; gene TNC, 250 nM) of the same compound?
Answer: 1.1 log2 MEKi/DMSO

Question: What about the Profile rpf (SW620 cells [1]; gene TNC, 250 nM) of the same compound?
Answer: −0.5 log2 MEKi/DMSO

Question: What about the “Profile TE” value (SW620 cells [1]; gene TNFRSF12A, 250 nM) of the same compound?
Answer: 0.2 log2 MEKi/DMSO

Question: And the Profile rna (SW620 cells [1]; gene TNFRSF12A, 250 nM)?
Answer: −2.2 log2 MEKi/DMSO

Question: And the Profile rpf (SW620 cells [1]; gene TNFRSF12A, 250 nM)?
Answer: −2.0 log2 MEKi/DMSO

Question: And the “Profile TE” value (SW620 cells [1]; gene WDR3, 250 nM)?
Answer: −1.0 log2 MEKi/DMSO

Question: And the Profile rna (SW620 cells [1]; gene WDR3, 250 nM)?
Answer: 0.0 log2 MEKi/DMSO

Question: And the Profile rpf (SW620 cells [1]; gene WDR3, 250 nM)?
Answer: −1.0 log2 MEKi/DMSO

Question: And the “Profile TE” value (SW620 cells [1]; gene YRDC, 250 nM)?
Answer: 0.1 log2 MEKi/DMSO

Question: And the Profile rna (SW620 cells [1]; gene YRDC, 250 nM)?
Answer: −0.7 log2 MEKi/DMSO

Question: What about the Profile rpf (SW620 cells [1]; gene YRDC, 250 nM) of the same compound?
Answer: −0.6 log2 MEKi/DMSO

Question: What about the “phosphorylation of S6, eIF4E and 4EBP1” value (SW620 cells [2]; 25 nM to 100 nM (data not shown)) of the same compound?
Answer: little or no effect

Question: What about the “Phosphorylation of ERK and p90RSK” value (SW620 cells [2]; 250 nM, 8 hrs) of the same compound?
Answer: completely inhibited

Question: And the “phosphorylation of eIF4E” value (SW620 cells [2]; 250 nM, 8 hrs)?
Answer: partial inhibition

Question: And the “phosphorylation of the ribosomal protein S6 (rpS6) and S6K (p70RSK)” value (SW620 cells [2]; 250 nM, 8 hrs)?
Answer: only partial inhibition

Question: What about the “inhibition of proliferation or induction of apoptosis” value (SW620 cells [3]; 250 nM for 8 hours) of the same compound?
Answer: No evidence

Question: What about the “potency in 72 hour proliferation assays” value (SW620 cells [3]; 72 hour (data not shown)) of the same compound?
Answer: 20 to 30 nM
